Measurements from patent US10144742B2 (Millennium Pharmaceuticals, Inc., priority 2014, dated 2018).
Like-named read-outs stand apart in the source and are kept apart here.

Experiments:
[1] = molecular target: hNAMPT protein (Homo sapiens (Human), UniProt P43490); assay: NAMPT enzyme assay (TR-FRET/HTRF, BodiPY ligand, anti 6His-Tb); format: binding; conditions: for IC50: read-out: IC50; for inhibition at 1 µM: read-out: Percent Inhibition
Outline: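 TR-FRET binding assay in which His-tagged human NAMPT with anti-6His-Tb is displaced by compound from a BodiPY ligand, incubated 1 h at rt in the dark. Excitation was at 320 nm, with the 520/486 nm emission ratio read. IC50 was fitted from inhibition relative to DMSO controls.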

[2] = tested on: PC3 cells; assay: PC3 growth inhibition (Cell-titer glo, 72 hours); format: cell-based; conditions: Homo sapiens, PC-3, PC3 cells, 72 hours, Cell-titer glo, read-out: Percent Inhibition (PC3 growth inhibition); for inhibition at 1 µM: compound concentration 1 μM; for inhibition at 1.667 µM: compound concentration 1.667 μM
Outline: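 PC3 cells in RPMI1640 seeded overnight at 37 °C, 5% CO2, then exposed to compound diluted in AIM serum-free medium for 72 h. Viability by CellTiter-Glo luminescence vs DMSO controls; single-concentration % remaining viability (1 μM or 1.667 μM), or GI50/LD50 from curves.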

[3] = NAMPT inhibition at compound concentration 1 μM
[4] = NAMPT inhibition, IC50 range class

Chain of hNAMPT protein (P43490 whole entry): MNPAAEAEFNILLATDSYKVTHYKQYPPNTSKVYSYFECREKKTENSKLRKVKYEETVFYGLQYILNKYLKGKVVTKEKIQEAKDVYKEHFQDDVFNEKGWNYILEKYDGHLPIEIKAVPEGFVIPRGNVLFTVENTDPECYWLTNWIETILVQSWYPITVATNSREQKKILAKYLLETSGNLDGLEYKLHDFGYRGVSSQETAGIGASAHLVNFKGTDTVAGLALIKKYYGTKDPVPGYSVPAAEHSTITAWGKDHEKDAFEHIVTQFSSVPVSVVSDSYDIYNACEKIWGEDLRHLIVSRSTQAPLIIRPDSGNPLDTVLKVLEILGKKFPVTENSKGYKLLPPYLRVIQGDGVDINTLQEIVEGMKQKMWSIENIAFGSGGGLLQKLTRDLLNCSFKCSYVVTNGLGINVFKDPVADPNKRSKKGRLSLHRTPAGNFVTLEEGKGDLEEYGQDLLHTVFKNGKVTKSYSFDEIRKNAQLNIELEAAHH

| Structure (SMILES) | IC50 ([1]; NAMPT IC50 range class) [nM] | inhibition at 1 µM ([1]; compound concentration 1 μM) [%] | inhibition at 1 µM [2] [%] | inhibition at 1.667 µM [2] [%] | inhibition at 1 µM [1, 3] [%] | IC50 [1, 4] [nM] | inhibition at 1 µM [1] [%] |
| --- | --- | --- | --- | --- | --- | --- | --- |
| COc1cccc(-c2nc3cc(C(=O)NCCCn4ccnc4)ccc3nc2N2CCOCC2)c1 [Compound I-55, N-[3-(1H-imidazol-1-yl)propyl]-3-(3-methoxyphenyl)-2-(morpholin-4-yl)quinoxaline-6-carboxamide] | < 100 | 102 | -7 | – | – | – | – |
| Cc1ccc(-c2nc3ccc(C(=O)NCCCn4ccnc4)cc3nc2-c2ccc(C)cc2)cc1 [Compound I-214, N-[3-(1H-imidazol-1-yl)propyl]-2,3-bis(4-methylphenyl)quinoxaline-6-carboxamide] | 1000 to 2000 | 40 | 0 | – | – | – | – |
| O=C(NCCCc1ncc[nH]1)c1ccc2nc(OC3CCCCC3)c(-c3ccc(Cl)cc3)nc2c1 [Compound I-216, 3-(4-chlorophenyl)-2-(cyclohexyloxy)-N-[3-(1H-imidazol-2-yl)propyl]quinoxaline-6-carboxamide] | < 100 | 91 | – | 3 | – | – | – |
| O=C(NCc1cn2cccnc2n1)c1ccc2nc(N3CCC(O)CC3)c(-c3ccc(F)cc3)nc2c1 [Compound I-282, 3-(4-Fluorophenyl)-2-(4-hydroxypiperidin-1-yl)-N-(imidazo[1,2-a]pyrimidin-2-ylmethyl)quinoxaline-6-carboxamide] | < 100 | 91 | – | 96 | – | – | – |
| CCN(CC)c1nc2ccc(C(=O)NCCCn3ccnc3)cc2nc1-c1ccccc1 [Compound I-207, 2-(diethylamino)-N-[3-(1H-imidazol-1-yl)propyl]-3-phenylquinoxaline-6-carboxamide] | 100 to 500 | 69 | -7 | – | – | – | – |
| O=C(NCCCc1ncc[nH]1)c1ccc2nc(-n3cncn3)c(-c3ccc(F)cc3)nc2c1 [Compound I-418] | – | – | – | 3 | 60 | 500 to 1000 | – |
| CC(C)Oc1cc(-c2nc3cc(C(=O)NCCCc4ncc[nH]4)ccc3nc2-c2ccc(F)cc2)c(F)cn1 [Compound I-518, 3-(5-fluoro-2-isopropoxypyridin-4-yl)-2-(4-fluorophenyl)-N-[3-(1H-imidazol-2-yl)propyl]quinoxaline-6-carboxamide] | – | – | – | 1 | 86 | 100 to 500 | – |
| O=C(NCCCc1cnccn1)c1ccc2nc(N3CCCCC3)c(-c3ccc(F)cc3)nc2c1 [Compound I-441, 3-(4-fluorophenyl)-2-(piperidin-1-yl)-N-[3-(pyrazin-2-yl)propyl]quinoxaline-6-carboxamide] | – | – | – | > 99 | 50 | 500 to 1000 | – |
| O=C(NCCCc1ncc[nH]1)c1ccc2nc(-n3nccn3)c(-c3ccc(F)cc3)nc2c1 [Compound I-330, N-(3-(1H-imidazol-2-yl)propyl)-3-(4-fluorophenyl)-2-(2H-1,2,3-triazol-2-yl)quinoxaline-6-carboxamide] | 100 to 500 | 79 | – | 3 | – | – | – |
| Cc1ncsc1-c1nc2cc(C(=O)NCCCc3ncc[nH]3)ccc2nc1-c1ccc(F)cc1 [Compound I-494, 2-(4-fluorophenyl)-N-[3-(1H-imidazol-2-yl)propyl]-3-(4-methyl-1,3-thiazol-5-yl)quinoxaline-6-carboxamide] | – | – | – | 3 | > 99 | < 100 | – |
| CC(=O)Nc1cccc(-c2nc3ccc(C(=O)NCCCn4ccnc4)cc3nc2-c2ccccc2)c1 [Compound I-2, 2-(3-acetamidophenyl)-N-[3-(1H-imidazol-1-yl)propyl]-3-phenylquinoxaline-6-carboxamide] | 100 to 500 | 77 | -7 | – | – | – | – |
| O=C(NCCCc1ncc[nH]1)c1ccc2nc(OCc3ccccc3)c(-c3ccc(F)cc3)nc2c1 [Compound I-439, 2-(benzyloxy)-3-(4-fluorophenyl)-N-[3-(1H-imidazol-2-yl)propyl]quinoxaline-6-carboxamide] | – | – | – | 3 | 93 | < 100 | – |
| O=C(NCCCc1ncc[nH]1)c1ccc2nc(OCc3ccsc3)c(-c3ccc(F)cc3)nc2c1 [Compound I-326, 3-(4-fluorophenyl)-N-[3-(1H-imidazol-2-yl)propyl]-2-(3-thienylmethoxy)quinoxaline-6-carboxamide] | < 100 | 92 | – | 3 | – | – | – |
| Cn1cc(CCOc2nc3ccc(C(=O)NCCCc4ncc[nH]4)cc3nc2-c2ccc(F)cc2)cn1 [Compound I-321, 3-(4-fluorophenyl)-N-[3-(1H-imidazol-2-yl)propyl]-2-[2-(1-methyl-1H-pyrazol-4-yl)ethoxy]quinoxaline-6-carboxamide] | < 100 | > 99 | – | 2 | – | – | – |
| O=C(NCCOc1cccnc1)c1ccc2nc(-c3ccc(F)cc3)c(-c3ccc(F)cc3)nc2c1 [Compound I-65, 2,3-bis(4-fluorophenyl)-N-[2-(pyridin-3-yloxy)ethyl]quinoxaline-6-carboxamide] | < 100 | 95 | – | 2 | – | – | – |
| Cn1cnc2cc(-c3nc4cc(C(=O)NCCCn5ccnc5)ccc4nc3-c3ccccc3)ccc21 [Compound I-143, N-[3-(1H-imidazol-1-yl)propyl]-3-(1-methyl-1H-benzimidazol-5-yl)-2-phenylquinoxaline-6-carboxamide] | 2000 to 10000 | 3 | 103 | – | – | – | – |
| O=C(NCCCn1ccnc1)c1ccc2nc(-c3cccs3)c(-c3ccccc3)nc2c1 [Compound I-247, N-[3-(1H-imidazol-1-yl)propyl]-3-phenyl-2-(2-thienyl)quinoxaline-6-carboxamide] | 500 to 1000 | 58 | -5 | – | – | – | – |
| O=C(c1ccc2nc(-c3ccc(F)cc3)c(-c3ccc(F)cc3)nc2c1)N1CCOC(c2cccnc2)C1 (stereo not drawn) [Compound I-155, [2,3-bis(4-fluorophenyl)quinoxalin-6-yl][2-(pyridin-3-yl)morpholin-4-yl]methanone] | 2000 to 10000 | 12 | 103 | – | – | – | – |
| O=C(NCCCn1ccnc1)c1ccc2nc(-c3ccc4[nH]ccc4c3)c(-c3ccccc3)nc2c1 [Compound I-149, N-[3-(1H-imidazol-1-yl)propyl]-2-(1H-indol-5-yl)-3-phenylquinoxaline-6-carboxamide] | 100 to 500 | 86 | -8 | – | – | – | – |
| O=C(NCCCc1ncc[nH]1)c1ccc2nc(N3CC4(COC4)C3)c(-c3ccc(F)cc3)nc2c1 [Compound I-154, 3-(4-fluorophenyl)-N-[3-(1H-imidazol-2-yl)propyl]-2-(2-oxa-6-azaspiro[3.3]hept-6-yl)quinoxaline-6-carboxamide] | < 100 | 98 | – | 2 | – | – | – |
| CC(C)c1nc2ccc(C(=O)NCCCc3ncc[nH]3)cc2nc1-c1ccc(F)cc1 [Compound I-444, 3-(4-fluorophenyl)-N-[3-(1H-imidazol-2-yl)propyl]-2-isopropylquinoxaline-6-carboxamide] | – | – | – | 1 | 77 | 100 to 500 | – |
| O=C1CN(c2nc3ccc(C(=O)NCCCn4ccnc4)cc3nc2-c2ccccc2)CN1 [Compound I-7, N-[3-(1H-imidazol-1-yl)propyl]-2-(4-oxoimidazolidin-1-yl)-3-phenylquinoxaline-6-carboxamide] | 2000 to 10000 | 12 | 105 | – | – | – | – |
| CC(=O)Nc1cccc(-c2nc3cc(C(=O)NCCCn4ccnc4)ccc3nc2-c2ccccc2)c1 [Compound I-248, 3-(3-acetamidophenyl)-N-[3-(1H-imidazol-1-yl)propyl]-2-phenylquinoxaline-6-carboxamide] | 2000 to 10000 | 29 | 2 | – | – | – | – |
| CC(C)(C)OC(=O)NCc1ccc(-c2nc3cc(C(=O)NCCCn4ccnc4)ccc3nc2-c2ccccc2)cc1 [Compound I-63, tert-Butyl [4-(7-{[3-(1H-imidazol-1-yl)propyl]carbamoyl}-3-phenylquinoxalin-2-yl)benzyl]carbamate] | 2000 to 10000 | – | 25 | – | – | – | 17 |
| O=C(NCCCc1ncc[nH]1)c1ccc2nc(N3CCC4(CC3)COC4)c(-c3ccc(F)cc3)nc2c1 [Compound I-277, 3-(4-Fluorophenyl)-N-[3-(1H-imidazol-2-yl)propyl]-2-(2-oxa-7-azaspiro[3.5]non-7-yl)quinoxaline-6-carboxamide] | < 100 | – | – | 2 | – | – | 99 |
| O=C(NCCOc1cccnc1)c1ccc2nc(N3CCC(O)CC3)c(-c3ccc(F)cc3)nc2c1 [Compound I-114, 3-(4-Fluorophenyl)-2-(4-hydroxypiperidin-1-yl)-N-[2-(pyridin-3-yloxy)ethyl]quinoxaline-6-carboxamide] | < 100 | – | – | 2 | – | – | > 99 |
| Nc1ccc(CCCNC(=O)c2ccc3nc(-c4ccc(F)cc4)c(-c4ccc(F)cc4)nc3c2)cn1 [Compound I-419, N-[3-(6-aminopyridin-3-yl)propyl]-2,3-bis(4-fluorophenyl)quinoxaline-6-carboxamide] | – | – | – | 3 | 52 | 500 to 1000 | – |
| O=C(NCCCn1ccnc1)c1ccc2nc(-c3cn[nH]c3)c(-c3ccccc3)nc2c1 [Compound I-49, N-[3-(1H-imidazol-1-yl)propyl]-3-phenyl-2-(1H-pyrazol-4-yl)quinoxaline-6-carboxamide] | 500 to 1000 | 56 | 8 | – | – | – | – |
